# Laboratory results published in patent US6455554B1, “Oxopyridinyl pharmaceutical compositions and methods for use” (Targacept, Inc., priority 1999, dated 2002).
# Several values for one entry are separate records, joined by “and”; a condition that tells them apart may be missing. Equal values may be shown once.
# What was measured:
# [1] = tested on: nicotinic cholinergic receptors that modulate dopamine release; assay: Determination of dopamine release; assay type: cell-based
# Description: Determination of Dopamine Release
# Dopamine release was measured using the techniques described in U.S. Pat. No. 5,597,919 to Dull et al. Release is expressed as a percentage of release obtained with a concentration of (S)-(−)-nicotine resulting in maximal effects. Reported EC50 values are expressed in nM, and Emax values represent the amount released relative to (S)-(−)-nicotine on a percentage basis.
# [2] = tested on: nicotinic receptors; assay: Determination of rubidium ion release (rubidium ion flux assay); assay type: cell-based
# Description: Determination of Rubidium Ion Release
# Rubidium release was measured using the techniques described in Bencherif et al., JPET, 279: 1413-1421 (1996). Reported EC50 values are expressed in nM, and Emax values represent the amount of rubidium ion released relative to 300 uM tetramethylammonium ion, on a percentage basis.
# [3] = molecular target: T1, muscle-type nicotinic acetylcholine receptors (Homo sapiens, UniProt P02708+P07510+Q07001); assay: Determination of interaction with muscle receptors; assay type: cell-based; set-up: Emax: dose or concentration left out as unconfirmed; conditions: for Emax: read-out: Emax at muscle-type receptors
# T1 construct: cell preparations expressing muscle-type nicotinic acetylcholine receptors; endogenous in cells
# T1 sequence (P02708 21-457): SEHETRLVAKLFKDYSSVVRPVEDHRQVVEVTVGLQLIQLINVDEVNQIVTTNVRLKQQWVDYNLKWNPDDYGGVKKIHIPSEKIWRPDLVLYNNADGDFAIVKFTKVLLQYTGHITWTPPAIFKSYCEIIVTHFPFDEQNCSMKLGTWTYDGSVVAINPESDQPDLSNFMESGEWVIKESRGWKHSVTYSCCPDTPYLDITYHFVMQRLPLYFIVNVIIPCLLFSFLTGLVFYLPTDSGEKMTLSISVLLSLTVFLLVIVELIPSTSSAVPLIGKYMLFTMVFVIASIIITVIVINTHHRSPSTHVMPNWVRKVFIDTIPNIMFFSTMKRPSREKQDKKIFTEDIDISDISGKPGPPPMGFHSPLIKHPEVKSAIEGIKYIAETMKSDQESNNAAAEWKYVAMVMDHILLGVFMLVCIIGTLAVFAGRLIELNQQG
# T1 sequence (P11230 24-501 partner): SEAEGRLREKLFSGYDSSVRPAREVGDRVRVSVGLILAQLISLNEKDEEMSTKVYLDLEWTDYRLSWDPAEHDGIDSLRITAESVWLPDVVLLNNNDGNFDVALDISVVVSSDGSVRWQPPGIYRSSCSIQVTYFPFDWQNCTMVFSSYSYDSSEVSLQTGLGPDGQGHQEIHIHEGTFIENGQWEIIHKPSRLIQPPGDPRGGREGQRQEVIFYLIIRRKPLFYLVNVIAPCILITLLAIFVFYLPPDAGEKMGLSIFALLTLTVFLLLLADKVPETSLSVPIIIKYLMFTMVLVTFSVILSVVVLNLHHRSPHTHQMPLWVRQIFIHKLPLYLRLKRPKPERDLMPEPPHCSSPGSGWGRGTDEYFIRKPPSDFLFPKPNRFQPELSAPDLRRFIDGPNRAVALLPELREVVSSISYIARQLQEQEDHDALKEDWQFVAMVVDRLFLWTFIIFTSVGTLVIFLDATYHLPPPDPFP
# T1 sequence (Q07001 22-517): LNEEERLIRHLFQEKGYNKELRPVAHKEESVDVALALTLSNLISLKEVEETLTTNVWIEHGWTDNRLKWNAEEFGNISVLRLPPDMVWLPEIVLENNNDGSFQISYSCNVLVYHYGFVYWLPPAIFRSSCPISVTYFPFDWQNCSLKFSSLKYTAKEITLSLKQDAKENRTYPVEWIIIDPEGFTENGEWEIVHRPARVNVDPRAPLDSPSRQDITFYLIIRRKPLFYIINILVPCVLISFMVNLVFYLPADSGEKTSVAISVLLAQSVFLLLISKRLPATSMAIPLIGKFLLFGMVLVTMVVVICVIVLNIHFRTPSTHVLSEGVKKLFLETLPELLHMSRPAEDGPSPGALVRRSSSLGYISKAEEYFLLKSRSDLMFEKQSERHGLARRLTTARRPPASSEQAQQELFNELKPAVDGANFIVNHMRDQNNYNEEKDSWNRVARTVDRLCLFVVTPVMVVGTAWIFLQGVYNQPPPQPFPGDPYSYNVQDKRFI
# T1 sequence (P07510 23-517): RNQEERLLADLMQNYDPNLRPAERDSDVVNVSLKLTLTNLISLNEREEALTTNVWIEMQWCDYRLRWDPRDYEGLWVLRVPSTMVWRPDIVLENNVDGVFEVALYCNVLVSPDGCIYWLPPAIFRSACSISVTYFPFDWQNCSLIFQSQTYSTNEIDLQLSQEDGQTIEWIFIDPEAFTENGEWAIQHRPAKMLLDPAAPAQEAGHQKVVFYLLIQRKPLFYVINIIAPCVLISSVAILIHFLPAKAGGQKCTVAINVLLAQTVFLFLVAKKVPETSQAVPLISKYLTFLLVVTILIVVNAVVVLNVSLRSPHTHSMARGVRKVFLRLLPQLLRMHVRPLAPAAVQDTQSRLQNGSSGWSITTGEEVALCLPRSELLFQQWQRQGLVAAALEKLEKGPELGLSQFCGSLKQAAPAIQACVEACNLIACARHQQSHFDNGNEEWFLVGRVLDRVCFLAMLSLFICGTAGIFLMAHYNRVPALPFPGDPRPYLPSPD
# Source text: The compounds of the present invention, when employed in effective amounts in accordance with the method of the present invention, lack the ability to elicit activation of nicotinic receptors of human muscle to any significant degree. […] Generally, typical preferred compounds useful in carrying the present invention activate isotopic rubidium ion flux by less than 10 percent, often by less than 5 percent, of that maximally provided by S(−) nicotine.
# Determination of Interaction with Muscle Receptors
# (§1) The determination of the interaction of the compounds with muscle receptors was carried out in accordance with the techniques described in U.S. Pat. No. 5,597,919 to Dull et al. The maximal activation for individual compounds (Emax) was determined as a percentage of the maximal activation induced by (S)-(−)-nicotine. Reported Emax values represent the amount released relative to (S)-(−)-nicotine on a percentage basis.
# [4] = tested on: ganglionic-type nicotinic acetylcholine receptors; assay: Determination of interaction with ganglion receptors; assay type: cell-based; conditions: at a concentration of 100 uM; relative to (S)-(-)-nicotine
# Source text: By this is meant that a particular dose of compound resulting in prevention and/or treatment of a CNS disorder, is essentially ineffective in eliciting activation of certain ganglionic-type nicotinic receptors. […] As such, such compounds have poor ability to cause isotopic rubidium ion flux through nicotinic receptors in cell preparations derived from the adrenal gland. Generally, typical preferred compounds useful in carrying out the present invention activate isotopic rubidium ion flux by less than 10 percent, often by less than 5 percent, of that maximally provided by S(−) nicotine.
# Determination of Interaction with Ganglion Receptors
# as §1, with “ganglionic” for “muscle”
# [5] = tested on: Rat brain synaptosomes; assay: Neurotransmitter release from brain synaptosomes; assay type: cell-based; conditions: 10 M of ligand, percentage of release with 10 M (S)-(-)-nicotine or 300 MTMA
# Description: Neurotransmitter Release from Brain Synaotosomes
# Neurotransmitter release was measured using techniques similar to those previously published (Bencherif M, et al.:. JPET 279: 1413-1421, 1996).
# Rat brain synaptosomes were prepared as follows: Female Sprague Dawley rats (100-200 g) were killed by decapitation after anesthesia with 70% CO2. Brains are dissected, and hippocampus, striatum, and thalamus isolated, and homogenized in 0.32 M sucrose containing 5 mM HEPES pH 7.4 using a glass/glass homogenizer. The tissue was then centrifuged for 1000×g for 10 minutes and the pellet discarded. The supernatant was centrifuged at 12000×g for 20 minutes. The resultant pellet was re-suspended in perfusion buffer (128 mM NaCl, 1.2 mM KH2PO4, 2.4 mM KCl, 3.2 mM CaCl2, 1.2 mM MgSO4, 25 mM HEPES, 1 mM Ascorbic acid, 0.01 mM pargyline HCl and 10 mM glucose pH 7.4) and centrifuged for 15 minutes at 25000×g. The final pellet was resuspended in perfusion buffer and placed in a water bath (37° C.) for 10 minutes. Radiolabeled neurotransmitter is added (30 L ^3H DA, 20 L ^3H NE, 10 L ^3H glutamate) to achieve a final concentration of 100 nM, vortexed and placed in a water bath for additional 10 minutes. Tissue-loaded filters is placed onto 11-mm diameter Gelman A/E filters on an open-air support. After a 10-minute wash period, fractions are collected to establish the basal release and agonist applied in the perfusion stream. Further fractions were collected after agonist application to re-establish the baseline. The perfusate was collected directly into scintillation vials and released radioactivity was quantified using conventional liquid scintillation techniques. Release of neurotransmitter was determined in the presence of […] of various ligands and was expressed as a percentage of release obtained with a concentration of 10 M (S)-(−)-nicotine or 300 MTMA resulting in maximal effects.
# [6] = molecular target: CNS nicotinic receptors (Rattus norvegicus, UniProt P09483+P12390); assay: Determination of binding to relevant receptor sites; conditions: inhibition constants calculated from IC50 values by the method of Cheng et al.
# Sequence of CNS nicotinic receptors (P09483 31-630): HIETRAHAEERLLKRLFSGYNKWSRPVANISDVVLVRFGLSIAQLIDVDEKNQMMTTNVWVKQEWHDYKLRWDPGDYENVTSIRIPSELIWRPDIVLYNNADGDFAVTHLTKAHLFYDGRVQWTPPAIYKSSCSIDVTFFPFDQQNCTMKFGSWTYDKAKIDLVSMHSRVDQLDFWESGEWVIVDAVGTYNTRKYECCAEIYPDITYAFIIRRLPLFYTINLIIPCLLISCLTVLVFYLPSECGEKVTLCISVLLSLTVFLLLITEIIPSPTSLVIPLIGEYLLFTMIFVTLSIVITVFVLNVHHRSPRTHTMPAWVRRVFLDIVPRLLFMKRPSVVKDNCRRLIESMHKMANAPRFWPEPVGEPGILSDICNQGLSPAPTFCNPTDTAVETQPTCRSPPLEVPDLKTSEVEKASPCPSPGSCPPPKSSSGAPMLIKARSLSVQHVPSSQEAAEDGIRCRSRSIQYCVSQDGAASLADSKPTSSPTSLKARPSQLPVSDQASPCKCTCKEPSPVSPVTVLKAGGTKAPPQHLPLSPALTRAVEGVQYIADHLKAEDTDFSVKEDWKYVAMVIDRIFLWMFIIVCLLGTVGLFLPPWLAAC
# Sequence of CNS nicotinic receptors (P12390 25-500): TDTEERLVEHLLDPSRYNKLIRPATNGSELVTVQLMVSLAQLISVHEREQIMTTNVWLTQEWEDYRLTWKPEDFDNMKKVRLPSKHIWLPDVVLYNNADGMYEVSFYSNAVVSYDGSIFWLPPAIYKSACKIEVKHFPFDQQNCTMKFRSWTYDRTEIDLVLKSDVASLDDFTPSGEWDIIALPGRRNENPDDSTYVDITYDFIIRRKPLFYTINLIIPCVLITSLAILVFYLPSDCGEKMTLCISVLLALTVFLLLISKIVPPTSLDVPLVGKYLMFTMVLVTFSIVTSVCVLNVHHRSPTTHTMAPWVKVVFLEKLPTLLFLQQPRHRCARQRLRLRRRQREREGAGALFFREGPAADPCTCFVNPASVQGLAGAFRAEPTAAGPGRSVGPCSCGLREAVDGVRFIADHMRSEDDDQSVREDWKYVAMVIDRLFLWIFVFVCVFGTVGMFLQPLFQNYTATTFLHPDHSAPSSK
# Description: Determination of Binding to Relevant Receptor Sites
# Binding of the compounds to relevant receptor sites was determined in accordance with the techniques described in U.S. Pat. No. 5,597,919 to Dull et al. Inhibition constants (Ki values), reported in nM, were calculated from the IC50 values using the method of Cheng et al., Biochem, Pharmacol. 22:3099 (1973).
# [7] = amount released relative to (S)-(-)-nicotine
# [8] = rubidium ion released relative to 300 uM tetramethylammonium ion
# [9] = at a concentration of 100 uM, relative to (S)-(-)-nicotine
Compound,EC50 [1],"Emax [1, 7]",EC50 [2],"Emax [2, 8]",Emax [3],Emax at ganglionic-type receptors [4],Emax [5],further results
"CNCC/C=C/c1cncc(OCC(C)C)c1 [Sample No. 6, (3E)-N-methyl-4-(3-(5-isobutoxypyridin)yl)-3-buten-1-amine hemigalactarate]",15 µM,25%,1 µM,15%,6%,13%,,
"CNCC/C=C/c1cncc(C(=O)NCc2ccccc2)c1 [Sample No. 2, (3E)-N-methyl-N-[3-(5-(N-benzylcarboxamido)pyridin)yl]-3-buten-1-amine]",100 µM,12%,,,,,,
CN[C@@H](C)C/C=C/c1cc(OC(C)C)c[n+]([O-])c1 [Sample No. 5],,,,,7%,8%,19%,
"CNCC/C=C/c1cnc(N)c([N+](=O)[O-])c1 [Sample No. 1, (3E)-N-methyl-4-[3-(5-nitro-6-aminopyridin)yl]-3-buten-1-amine]",,,26 µM,,,11% and 16%,,"Ki [6]: 0.003 µM; Emax for dopamine release [1, 7]: 0%; neurotransmitter release Emax [5]: 33%; Emax in the rubidium ion flux assay [2, 8]: 22%; Emax at muscle-type receptors [3, 9]: 10% and 11%"
"CNC(C)CC=Cc1cncc(O)c1 (centres unmarked) [Sample No. 13, (4E)-N-methyl-5-(3-(5-hydroxypyridin)yl)-4-penten-2-amine sesquioxalate]",,,,,21%,12%,80%,
"CNC(C)CC=Cc1ccc[n+]([O-])c1 (centres unmarked) [Sample No. 8, (4E)-N-methyl-5-(3-(1-oxopyridin)yl)-4-penten-2-amine]",,,,,0%,8%,9%,
"CNC(C)CC=Cc1cncc(C(F)(F)F)c1 (centres unmarked) [Sample No. 10, (4E)-N-methyl-5-(3-(5-trifluoromethylpyridin)yl)-4-penten-2-amine]",,,100 µM,0%,0%,0%,50%,
"CCSc1cncc(/C=C/CCNC)c1 [Sample No. 9, (3E)-N-methyl-4-(3-(5-ethylthiopyridin)yl)-3-buten-1-amine hemigalactarate]",0.875 µM,39%,0.191 µM,40%,7%,22%,,
"CC(N)CC=Cc1cncc(OC(C)C)c1 (centres unmarked) [Sample No. 12, (4E)-5-(3-(5-isopropoxypyridin)yl)-4-penten-2-amine hemigalactarate]",,,,,,5%,32%,"Emax at 100 µM [3, 9]: 13%"
